{"source": "paper doi:10.1101/2025.07.07.663466v1", "about": "(biorxiv, 2025)", "biological_target": "M. tuberculosis GroEL1 (Cpn60.1) (Mycobacterium tuberculosis, UniProt P9WPE9)", "sequence (P9WPE9 2-539 limits assumed)": "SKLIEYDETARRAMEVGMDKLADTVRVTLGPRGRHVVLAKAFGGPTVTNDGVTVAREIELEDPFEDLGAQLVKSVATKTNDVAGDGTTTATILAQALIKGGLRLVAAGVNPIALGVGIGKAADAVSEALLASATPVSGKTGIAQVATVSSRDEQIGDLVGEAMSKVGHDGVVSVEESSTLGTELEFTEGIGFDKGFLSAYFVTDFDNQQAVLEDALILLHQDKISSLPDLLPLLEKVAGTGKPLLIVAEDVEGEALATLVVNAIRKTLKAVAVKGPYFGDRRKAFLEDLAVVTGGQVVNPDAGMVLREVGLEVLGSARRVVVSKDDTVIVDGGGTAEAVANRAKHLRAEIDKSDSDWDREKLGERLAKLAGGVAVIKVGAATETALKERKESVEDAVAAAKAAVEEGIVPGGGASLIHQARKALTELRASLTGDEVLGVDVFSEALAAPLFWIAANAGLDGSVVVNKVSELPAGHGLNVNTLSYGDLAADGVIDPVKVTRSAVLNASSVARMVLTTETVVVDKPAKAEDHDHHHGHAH"}
{"compound": "CCC(=O)SCCNC(=O)CCNC(=O)[C@H](O)C(C)(C)COP(=O)(O)OP(=O)(O)OC[C@H]1O[C@@H](n2cnc3c(N)ncnc32)[C@H](O)[C@@H]1OP(=O)(O)O", "note": "[propionyl-CoA]", "values": [{"measurement": "auto-propionylation, anti-propionyllysine enrichment and MS/MS", "result": "Using propionyl-CoA as a substrate"}]}
